Test results taken from publication PMC10512030, “Prolidase-proline oxidase axis is engaged in apoptosis induction by birch buds flavonol santin in endometrial adenocarcinoma cell line” (Frontiers in Molecular Biosciences, 2023).
Read-outs that look alike come from different tables or passages of the source.

Tested on: endometrial adenocarcinoma Ishikawa cells
Assay: Cell viability MTT assay, Ishikawa
Type: cell-based, human
Settings: Homo sapiens

COc1ccc(-c2oc3cc(O)c(OC)c(O)c3c(=O)c2OC)cc1 [santin, 5,7-dihydroxy-3,6,4′-trimethoxyflavone]
IC50 (24 h, read-out: IC50 values ± SD in MTT assay): 12.9 ± 1.1 µM | IC50 (48 h, negative control siRNA transfected cells, 48 h, read-out: IC50, MTT assay): 5.9 ± 0.9 µM | IC50 (48 h, non-transfected cells, 48 h, read-out: IC50, MTT assay): 5.7 ± 0.8 µM | IC50 (48 h, p53-silenced cells, 48 h, read-out: IC50, MTT assay): 5.9 ± 1.1 µM | IC50 (48 h, prolidase-silenced cells, 48 h, read-out: IC50, MTT assay): 11.1 ± 1.9 µM | IC50 (48 h, proline oxidase-silenced cells, 48 h, read-out: IC50, MTT assay): 14 ± 2 µM | IC50 (48 h, read-out: IC50 values ± SD in MTT assay): 5.1 ± 0.9 µM
